Experimental data as given in patent US6881741B2 (ViroChem Pharma Inc., priority 2001, dated 2005).

Target: recombinant HCV NS5B (HCV RNA-dependent RNA polymerase) (Hepatitis C virus genotype 1b, UniProt P26663)
Assay: biochemical
Conditions: related polymerase activity (Example 27 list); read-out: IC50

Sequence of recombinant HCV NS5B (HCV RNA-dependent RNA polymerase) (P26663 2420-3010 limits assumed): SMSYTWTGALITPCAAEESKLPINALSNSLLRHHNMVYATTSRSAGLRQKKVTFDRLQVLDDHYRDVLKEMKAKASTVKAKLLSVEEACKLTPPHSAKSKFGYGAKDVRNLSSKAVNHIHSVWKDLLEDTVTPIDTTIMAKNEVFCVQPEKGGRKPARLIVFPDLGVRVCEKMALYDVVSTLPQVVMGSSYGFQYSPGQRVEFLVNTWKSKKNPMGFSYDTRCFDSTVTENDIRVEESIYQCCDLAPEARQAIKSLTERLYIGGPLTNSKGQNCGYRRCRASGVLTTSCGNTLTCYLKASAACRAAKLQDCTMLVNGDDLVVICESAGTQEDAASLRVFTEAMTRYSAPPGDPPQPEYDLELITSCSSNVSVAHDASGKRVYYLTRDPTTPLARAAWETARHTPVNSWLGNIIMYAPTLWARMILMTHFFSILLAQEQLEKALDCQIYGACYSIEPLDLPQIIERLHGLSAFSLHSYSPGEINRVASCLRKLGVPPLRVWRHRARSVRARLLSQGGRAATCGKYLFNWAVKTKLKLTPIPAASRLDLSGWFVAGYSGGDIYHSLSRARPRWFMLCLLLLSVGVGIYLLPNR

CC(=O)c1ccc(-c2cc(NS(=O)(=O)c3ccc(C)cc3)c(C(=O)O)s2)cc1 [Compound 237, 5-(4-ACETYL-PHENYL)-3-(TOLUENE-4-SULFONYLAMINO)-THIOPHENE-2-CARBOXYLIC ACID] and Cc1ccc(S(=O)(=O)Nc2cc(-c3ccc(C(N)=O)cc3)sc2C(=O)O)cc1 [Compound 259, 5-(4-CARBAMOYL-PHENYL)-3-(TOLUENE-4-SULFONYLAMINO)-THIOPHENE-2-CARBOXYLIC ACID] cannot be ordered by IC50: < 5 µM for the first, < 5 µM for the second.

CC(=O)c1ccc(-c2cc(NS(=O)(=O)c3ccc(Cl)cc3)c(C(=O)O)s2)cc1 [Compound 238, 5-(4-ACETYL-PHENYL)-3-(4-CHLORO-BENZENESULFONYLAMINO)-THIOPHENE-2-CARBOXYLIC ACID] and NC(=O)c1ccc(-c2cc(NS(=O)(=O)c3ccc(Cl)cc3)c(C(=O)O)s2)cc1 [Compound 265, 5-(4-CARBAMOYL-PHENYL)-3-(4-CHLORO-BENZENESULFONYLAMINO)-THIOPHENE-2-CARBOXYLIC ACID] cannot be ordered by IC50: < 5 µM for the first, < 5 µM for the second.

Compared with Cc1ccccc1S(=O)(=O)Nc1cc(-c2ccc(C(=O)O)cc2)sc1C(=O)OC(C)(C)C [Compound 239, 5-(4-CARBOXY-PHENYL)-3-(TOLUENE-2-SULFONYLAMINO)-THIOPHENE-2-CARBOXYLIC ACID TERT-BUTYL ESTER], Cc1ccccc1S(=O)(=O)Nc1cc(-c2ccc(C(=O)O)cc2)sc1C(=O)O [Compound 248, 5-(4-CARBOXY-PHENYL)-3-(TOLUENE-2-SULFONYLAMINO)-THIOPHENE-2-CARBOXYLIC ACID] is lower in IC50: 5 to 20 µM for the first, < 5 µM for the second. The second is the more potent here.

First: Cc1ccc(S(=O)(=O)N(c2cc(-c3ccccc3)sc2C(=O)O)C(C)C)c(C)c1 [Compound 240, 3-[(2,4-DIMETHYL-BENZENESULFONYL)-ISOPROPYL-AMINO]-5-PHENYL-THIOPHENE-2-CARBOXYLIC ACID]
Second: Cc1ccc(C(=O)N(c2cc(-c3ccccc3)sc2C(=O)O)C(C)C)c(C)c1 [Compound 262, 3-[(2,4-DIMETHYL-BENZOYL)-ISOPROPYL-AMINO]-5-PHENYL-THIOPHENE-2-CARBOXYLIC ACID]
The IC50 of the first is higher: 5 to 20 µM for the first, < 5 µM for the second.

First: CC(=O)N(Cc1ccc(Cl)cc1)c1cc(-c2ccccc2)sc1C(=O)O [Compound 241, 3-[ACETYL-(4-CHLORO-BENZYL)-AMINO]-5-PHENYL-THIOPHENE-2-CARBOXYLIC ACID]
Second: CC(C)=CCN(C(=O)c1ccc(Cl)cc1Cl)c1cc(-c2ccccc2)sc1C(=O)O [Compound 244, 3-[(2,4-DICHLORO-BENZOYL)-(3-METHYL-BUT-2-ENYL)-AMINO]-5-PHENYL-THIOPHENE-2-CARBOXYLIC ACID]
The IC50 of the first is higher: 5 to 20 µM for the first, < 5 µM for the second.

CCS(=O)(=O)Nc1cc(-c2ccccc2)sc1C(=O)O [Compound 242, 3-ETHANESULFONYLAMINO-5-PHENYL-THIOPHENE-2-CARBOXYLIC ACID] and Cc1ccccc1S(=O)(=O)Nc1cc(-c2ccc(C(N)=O)cc2)sc1C(=O)O [Compound 282, 5-(4-CARBAMOYL-PHENYL)-3-(TOLUENE-2-SULFONYLAMINO)-THIOPHENE-2-CARBOXYLIC ACID] fall in the same range of IC50: 5 to 20 µM for the first, 5 to 20 µM for the second.

First: CC(C)N(C(=O)c1ccc(C(F)(F)F)cc1)c1cc(-c2ccccc2)sc1C(=O)O [Compound 243, 3-[ISOPROPYL-(4-TRIFLUOROMETHYL-BENZOYL)-AMINO]-5-PHENYL-THIOPHENE-2-CARBOXYLIC ACID]
Second: CC(C)N(C(=O)c1ccc(Cl)nc1)c1cc(-c2ccccc2)sc1C(=O)O [Compound 246, 3-[(6-CHLORO-PYRIDINE-3-CARBONYL)-ISOPROPYL-AMINO]-5-PHENYL-THIOPHENE-2-CARBOXYLIC ACID]
The IC50 of the first is lower: < 5 µM for the first, > 20 µM for the second. The first is the more potent here.

CN(C(=O)c1ccc(Cl)nc1Cl)c1cc(-c2ccccc2)sc1C(=O)O [Compound 245, 3-[(2,6-DICHLORO-PYRIDINE-3-CARBONYL)-METHYL-AMINO]-5-PHENYL-THIOPHENE-2-CARBOXYLIC ACID] and CC(C)N(C(=O)c1ccc(Cl)nc1Cl)c1cc(-c2ccccc2)sc1C(=O)O [Compound 250, 3-[(2,6-DICHLORO-PYRIDINE-3-CARBONYL)-ISOPROPYL-AMINO]-5-PHENYL-THIOPHENE-2-CARBOXYLIC ACID] fall in the same range of IC50: 5 to 20 µM for the first, 5 to 20 µM for the second.

First: CN(C(=O)c1ccc(C(C)(C)C)cc1)c1cc(-c2ccccc2)sc1C(=O)O [Compound 247, 3-[(4-TERT-BUTYL-BENZOYL)-METHYL-AMINO]-5-PHENYL-THIOPHENE-2-CARBOXYLIC ACID]
Second: Cc1cc(C(=O)N(C)c2cc(-c3ccccc3)sc2C(=O)O)ccc1Br [Compound 255, 3-[(4-BROMO-3-METHYL-BENZOYL)-METHYL-AMINO]-5-PHENYL-THIOPHENE-2-CARBOXYLIC ACID]
The IC50 of the first is higher: 5 to 20 µM for the first, < 5 µM for the second. The second is the more potent here.

CN(C(=O)c1cc2ccccc2s1)c1cc(-c2ccccc2)sc1C(=O)O [Compound 251, 3-[(BENZO[B]THIOPHENE-2-CARBONYL)-METHYL-AMINO]-5-PHENYL-THIOPHENE-2-CARBOXYLIC ACID] and CN(C(=O)c1sc2ccccc2c1Cl)c1cc(-c2ccccc2)sc1C(=O)O [Compound 256, 3-[(3-CHLORO-BENZO[B]THIOPHENE-2-CARBONYL)-METHYL-AMINO]-5-PHENYL-THIOPHENE-2-CARBOXYLIC ACID] fall in the same range of IC50: 5 to 20 µM for the first, 5 to 20 µM for the second.

CN(C(=O)c1ccc2ccccc2c1)c1cc(-c2ccccc2)sc1C(=O)O [Compound 252, 3-[METHYL-(NAPHTHALENE-2-CARBONYL)-AMINO]-5-PHENYL-THIOPHENE-2-CARBOXYLIC ACID] and CN(C(=O)c1ccc(Cl)c(Cl)c1)c1cc(-c2ccccc2)sc1C(=O)O [Compound 253, 3-[(3,4-DICHLORO-BENZOYL)-METHYL-AMINO]-5-PHENYL-THIOPHENE-2-CARBOXYLIC ACID] fall in the same range of IC50: 5 to 20 µM for the first, 5 to 20 µM for the second.

CN(C(=O)c1cc(Cl)cc(Cl)c1)c1cc(-c2ccccc2)sc1C(=O)O [Compound 254, 3-[(3,5-DICHLORO-BENZOYL)-METHYL-AMINO]-5-PHENYL-THIOPHENE-2-CARBOXYLIC ACID] and Cc1ccc(C(=O)N(C)c2cc(-c3ccccc3)sc2C(=O)O)cc1[N+](=O)[O-] [Compound 257, 3-[METHYL-(4-METHYL-3-NITRO-BENZOYL)-AMINO]-5-PHENYL-THIOPHENE-2-CARBOXYLIC ACID] fall in the same range of IC50: 5 to 20 µM for the first, 5 to 20 µM for the second.

First: Cc1ccccc1S(=O)(=O)Nc1cc(-c2ccc3[nH]ccc3c2)sc1C(=O)O [Compound 260, 5-(1H-INDOL-5-YL)-3-(TOLUENE-2-SULFONYLAMINO)-THIOPHENE-2-CARBOXYLIC ACID]
Second: Cc1ccc(C(=O)N(C)c2cc(-c3ccccc3C)sc2C(=O)O)cc1 [Compound 267, 3-[METHYL-(4-METHYL-BENZOYL)-AMINO]-5-O-TOLYL-THIOPHENE-2-CARBOXYLIC ACID]
The IC50 of the first is higher: 5 to 20 µM for the first, < 5 µM for the second. The second is the more potent here.

CCC(C)N(C(=O)c1ccc(Cl)cc1Cl)c1cc(-c2ccccc2)sc1C(=O)O (centres unmarked) [Compound 261, 3-[SEC-BUTYL-(2,4-DICHLORO-BENZOYL)-AMINO]-5-PHENYL-THIOPHENE-2-CARBOXYLIC ACID] and CC(c1ccccc1)N(C(=O)c1ccc(Cl)cc1Cl)c1cc(-c2ccccc2)sc1C(=O)O (centres unmarked) [Compound 264, 3-[(2,4-DICHLORO-BENZOYL)-(1-PHENYL-ETHYL)-AMINO]-5-PHENYL-THIOPHENE-2-CARBOXYLIC ACID] cannot be ordered by IC50: < 5 µM for the first, < 5 µM for the second.

Cc1ccc(C(=O)N(C)c2cc(-c3ccccc3F)sc2C(=O)O)cc1 [Compound 266, 5-(2-FLUORO-PHENYL)-3-[METHYL-(4-METHYL-BENZOYL)-AMINO]-THIOPHENE-2-CARBOXYLIC ACID] and Cc1ccc(C(=O)N(C)c2cc(-c3ccc(F)c(F)c3)sc2C(=O)O)cc1 [Compound 270, 5-(3,4-DIFLUORO-PHENYL)-3-[METHYL-(4-METHYL-BENZOYL)-AMINO]-THIOPHENE-2-CARBOXYLIC ACID] cannot be ordered by IC50: < 5 µM for the first, < 5 µM for the second.

Cc1ccc(C(=O)N(C)c2cc(-c3cccc(C)c3)sc2C(=O)O)cc1 [Compound 268, 3-[METHYL-(4-METHYL-BENZOYL)-AMINO]-5-M-TOLYL-THIOPHENE-2-CARBOXYLIC ACID] and Cc1ccc(C(=O)N(C)c2cc(-c3cccc(Cl)c3)sc2C(=O)O)cc1 [Compound 269, 5-(3-CHLORO-PHENYL)-3-[METHYL-(4-METHYL-BENZOYL)-AMINO]-THIOPHENE-2-CARBOXYLIC ACID] cannot be ordered by IC50: < 5 µM for the first, < 5 µM for the second.

First: Cc1ccc(C(=O)N(C)c2cc(-c3cccc(N)c3)sc2C(=O)O)cc1 [Compound 271, 5-(3-AMINO-PHENYL)-3-[METHYL-(4-METHYL-BENZOYL)-AMINO]-THIOPHENE-2-CARBOXYLIC ACID]
Second: Cc1ccc(C(=O)N(C)c2cc(-c3cccc(O)c3)sc2C(=O)O)cc1 [Compound 273, 5-(3-HYDROXY-PHENYL)-3-[METHYL-(4-METHYL-BENZOYL)-AMINO]-THIOPHENE-2-CARBOXYLIC ACID]
The IC50 of the first is higher: 5 to 20 µM for the first, < 5 µM for the second.

First: CC(=O)c1cccc(-c2cc(N(C)C(=O)c3ccc(C)cc3)c(C(=O)O)s2)c1 [Compound 272, 5-(3-ACETYL-PHENYL)-3-[METHYL-(4-METHYL-BENZOYL)-AMINO]-THIOPHENE-2-CARBOXYLIC ACID]
Second: Cc1ccc(C(=O)N(C)c2cc(-c3cccc(C(F)(F)F)c3)sc2C(=O)O)cc1 [Compound 274, 3-[METHYL-(4-METHYL-BENZOYL)-AMINO]-5-(3-TRIFLUOROMETHYL-PHENYL)-THIOPHENE-2-CARBOXYLIC ACID]
The IC50 of the first is higher: 5 to 20 µM for the first, < 5 µM for the second.

First: Cc1ccc(C(=O)N(C)c2cc(-c3ccc(C(F)(F)F)cc3)sc2C(=O)O)cc1 [Compound 275, 3-[METHYL-(4-METHYL-BENZOYL)-AMINO]-5-(4-TRIFLUOROMETHYL-PHENYL)-THIOPHENE-2-CARBOXYLIC ACID]
Second: CN(C(=O)c1ccc(C(F)(F)F)c(F)c1)c1cc(-c2ccccc2)sc1C(=O)O [Compound 279, 3-[(3-FLUORO-4-TRIFLUOROMETHYL-BENZOYL)-METHYL-AMINO]-5-PHENYL-THIOPHENE-2-CARBOXYLIC ACID]
The IC50 of the first is lower: < 5 µM for the first, 5 to 20 µM for the second.

Compared with COc1ccc(C(=O)N(C)c2cc(-c3ccccc3)sc2C(=O)O)cc1OC [Compound 276, 3-[(3,4-DIMETHOXY-BENZOYL)-METHYL-AMINO]-5-PHENYL-THIOPHENE-2-CARBOXYLIC ACID], Cc1ccc(C(=O)N(C)c2cc(-c3ccccc3)sc2C(=O)O)c(F)c1F [Compound 280, 3-[(2,3-DIFLUORO-4-METHYL-BENZOYL)-METHYL-AMINO]-5-PHENYL-THIOPHENE-2-CARBOXYLIC ACID] is lower in IC50: > 20 µM for the first, < 5 µM for the second.

CN(C(=O)c1ccc(C(F)(F)F)c(F)c1F)c1cc(-c2ccccc2)sc1C(=O)O [Compound 278, 3-[(2,3-DIFLUORO-4-TRIFLUOROMETHYL-BENZOYL)-METHYL-AMINO]-5-PHENYL-THIOPHENE-2-CARBOXYLIC ACID] was tested, and the IC50 was 5 to 20 µM.
